Measurements as given in patent US20150072933A1, “NOVEL SEQUENCES FOR THE CONTROL OF REPRODUCTION IN FISH” (Yissum Research Development Company of the Hebrew …, priority 2011, published 2015).
Entries after “also recorded” stand apart in the source; their conditions may differ. Where a SMILES comes first, the peptide text is derived from it.

How the values were obtained:
zfTac3rb [1] = test: Receptor transactivation assay, SRE-Luc reporter (PKC activation), COS-7 cells expressing zfTac3rb; format: cell-based, zebrafish; details: mean ± SEM
Procedure: (§1) In order to study the signaling pathways of the novel zebrafish NKBs, the entire coding regions of zftac3ra (denoted by SEQ ID NO:6) or zftac3rb (denoted by SEQ ID NO:7), or the cDNA clone for human NK3R (obtained from the Missouri S&T cDNA Resource Center, were inserted into pcDNA3.1 (Invitrogen). The luciferase assay was conducted according to Biran et al., 2008 [4] COS-7 cells were grown in DMEM supplemented with 10% FBS, 1% glutamine, 100 U/ml penicillin, and […] streptomycin (Biological Industries) under 5% CO2 until confluent. Cotransfection of either pc-zftac3ra, pc-zftac3rb or pc-Htac3r (at 3 μg/plate), a reporter plasmid (at 2 μg/plate), and pCMV-β-galactosidase (at 1 μg/plate) was carried out with FuGENE 6.0 reagent (Roche). The cells were serum starved for 36 h, stimulated with vehicle or various concentrations of either human (Sigma) or zebrafish NKBs for 6 h, and then harvested and analyzed. Lysates prepared from the harvested cells were assayed for both luciferase activity and β-galactosidase activity, which was used as an internal standard to normalize the luciferase activity directed by the test plasmid. Transfection experiments were performed in triplicate with three independently isolated sets. Protein structure prediction of zebrafish NKBa, NKBb or NKF were performed on I-Tasser servers.
(§2) The response, binding selectivity and signal transduction pathways of the novel tachykinin receptors to their agonists were evaluated by functional expression analysis, using COS-7 cells.
(§3) The NKB analogues (i.e. the NKBa-analog, NKBb-analog and NKF-analog, as denoted by SEQ ID NO. 44-46) were first analyzed in comparison to their native forms in a transactivation assay, using reporter genes for specific signal transduction pathways. To validate the specificity of the serum-responsive element (SRE)-Luc and cAMP-responsive element (CRE)-Luc reporter systems, specific activators for PLC/PKC and AC/PKA signaling pathways were used in control experiments.
(§4) Thus, the ability of the three novel piscine peptides (namely, NKBa, NKBb and NKF, denoted by SEQ ID NO.40, 41 and 42), as well as the ability of the three analogous agonistic peptides, namely, NKBa-analog, NKBb-analog and NKF-analog, to differentially activate the different tac3 receptors, using SRE as a reporter gene that follows PKC activation and CRE as a reporter gene for the PKA pathway, was tested. Human NK3R (human NKB receptor) and human NKB served as controls.

[2] = test system: sexually mature female zebrafish; test: In vivo effect of NKBs in zebrafish: LH secretion after intraperitoneal injection; details: single intraperitoneal injection, 20 pmol/g body weight, sexually mature female zebrafish
Procedure: In vivo studies involved administering NKBa, NKBb or NKF and the analogues thereof, denoted by SEQ ID NO. 40-42 and 44-46, respectively to immature fish (20 fish/treatment). The circulating levels of E2, 11KT, LH and FSH were determined prior to hormonal manipulations, in order to confirm that these fish were indeed sexually immature. The fish were injected intramuscularly (i.m.) or intraperitonealy (i.p.) at various doses. Adult female zebra fish were injected intraperitoneally with 20 pmol/g body weight. Control fish were injected with saline. Plasma samples were collected at time 0, and specific times after the administration of the peptide/s, to determine the levels of E2, 11KT, LH and FSH.
To further characterize the role of the NKB/NKBR system in fish reproduction the in vivo biological function of zebrafish NKB peptides was next examined.

zfTac3rb [3] = test: Receptor transactivation assay, CRE-Luc reporter (PKA activation), COS-7 cells expressing zfTac3rb; format: cell-based, zebrafish; details: mean ± SEM
Procedure: as §1, §2, §3, §4

[4] = test system: NKB receptors (human NKBR, zebrafish Tac3ra, Tac3rb); test: Receptor transactivation assay, statements in words across SRE-Luc and CRE-Luc reporters and receptors; format: cell-based
Procedure: as §1, §2, §4

[5] = molecular target: T1, NKB receptors (human NKBR, zebrafish Tac3ra, Tac3rb) (Homo sapiens, UniProt P29371); test: as above; format: cell-based; details: human NKBR (huNK3R), in both signal transduction systems (SRE-Luc and CRE-Luc)
T1 construct: expressed in transfected cells; host or cells: COS-7
T1 sequence (P29371 1-465): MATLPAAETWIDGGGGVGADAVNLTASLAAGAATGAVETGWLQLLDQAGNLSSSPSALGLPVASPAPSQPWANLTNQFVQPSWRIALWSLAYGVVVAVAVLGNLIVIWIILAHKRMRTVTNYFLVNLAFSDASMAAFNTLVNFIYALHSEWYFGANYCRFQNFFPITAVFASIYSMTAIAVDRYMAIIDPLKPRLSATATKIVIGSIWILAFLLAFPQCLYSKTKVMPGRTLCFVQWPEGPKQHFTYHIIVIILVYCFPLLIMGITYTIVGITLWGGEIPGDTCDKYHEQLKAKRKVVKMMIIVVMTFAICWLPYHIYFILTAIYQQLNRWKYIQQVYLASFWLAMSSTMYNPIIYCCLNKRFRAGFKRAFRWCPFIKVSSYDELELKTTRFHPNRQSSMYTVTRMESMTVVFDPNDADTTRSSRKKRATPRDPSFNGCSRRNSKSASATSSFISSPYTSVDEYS
Procedure: as §1, §2, §4

huNK3R = molecular target: T2, huNK3R (Homo sapiens, UniProt P29371); test: Receptor transactivation assay, SRE-Luc reporter (PKC activation), COS-7 cells expressing human NK3R; format: cell-based
T2 construct: host or cells: COS-7
T2 sequence (P29371 1-465): T1 sequence (P29371 1-465)
Procedure: In order to study the signaling pathways of the novel zebrafish NKBs, the entire coding regions of zftac3ra (denoted by SEQ ID NO:6) or zftac3rb (denoted by SEQ ID NO:7), or the cDNA clone for human NK3R (obtained from the Missouri S&T cDNA Resource Center, were inserted into pcDNA3.1 (Invitrogen). The luciferase assay was conducted according to Biran et al., 2008 [4] COS-7 cells were grown in DMEM supplemented with 10% FBS, 1% glutamine, 100 U/ml penicillin, and 100 mg/ml streptomycin (Biological Industries) under 5% CO2 until confluent. Cotransfection of either pc-zftac3ra, pc-zftac3rb or pc-Htac3r (at 3 μg/plate), a reporter plasmid (at 2 μg/plate), and pCMV-β-galactosidase (at 1 μg/plate) was carried out with FuGENE 6.0 reagent (Roche). The cells were serum starved for 36 h, stimulated with vehicle or various concentrations of either human (Sigma) or zebrafish NKBs for 6 h, and then harvested and analyzed. Lysates prepared from the harvested cells were assayed for both luciferase activity and β-galactosidase activity, which was used as an internal standard to normalize the luciferase activity directed by the test plasmid. Transfection experiments were performed in triplicate with three independently isolated sets.

zfTac3ra [6] = test: Receptor transactivation assay, CRE-Luc reporter (PKA activation), COS-7 cells expressing zfTac3ra; format: cell-based, zebrafish; details: mean ± SEM
Procedure: as §1, §2, §3, §4

zfTac3ra [7] = test: Receptor transactivation assay, SRE-Luc reporter (PKC activation), COS-7 cells expressing zfTac3ra; format: cell-based, zebrafish; details: mean ± SEM
Procedure: as §1, §2, §3, §4

EC50 (zfTac3rb [1]; Table 5, COS-7 cells, SRE-Luc follows PKC activation, read-out: EC50 SRE-Luc zfTac3rb): 33.8 ± 14.7 nM
EC50 (zfTac3rb [1]; Table 7 (native peptides and analogues), PKC activation, listed as NKBb, read-out: EC50 using SRE, zfTac3rb): 15.3 nM
EC50 (zfTac3rb [1]; Table 7 (native peptides and analogues), PKC activation, read-out: EC50 using SRE, zfTac3rb): 15.3 ± 18.3 nM
EC50 (zfTac3rb [3]; Table 5, COS-7 cells, CRE-Luc follows PKA activation, read-out: EC50 CRE-Luc zfTac3rb): 519 ± 160 nM
EC50 (zfTac3rb [3]; Table 6 (native peptides and analogues), PKA activation, read-out: EC50 using CRE-Luc, zfTac3rb): 191 nM
luciferase activity ([4]; both SRE-Luc and CRE-Luc, both signal transduction pathways): less effective than the other forms
activation of the piscine NKB receptors ([4]; zebrafish tac3ra and tac3rb, FIGS. 11A, B, D, E): lowest effect
potency [5]: relatively low potency
SRE-driven luciferase activity, response (huNK3R; COS-7 cells transiently transfected with human NK3R): lowest effect
EC50 (huNK3R; Table 5, COS-7 cells, SRE-Luc follows PKC activation, mean ± SEM): 204 ± 139 nM
EC50 (zfTac3ra [6]; Table 5, COS-7 cells, CRE-Luc follows PKA activation, read-out: EC50 CRE-Luc zfTac3ra): 237 ± 134 nM
EC50 (zfTac3ra [6]; Table 6 (native peptides and analogues), PKA activation, listed as NKBb, read-out: EC50 using CRE-Luc, zfTac3ra): 99.6 nM
EC50 (zfTac3ra [6]; Table 6 (native peptides and analogues), PKA activation, read-out: EC50 using CRE-Luc, zfTac3ra): 99.6 ± 12.9 nM
EC50 (zfTac3ra [7]; Table 5, COS-7 cells, SRE-Luc follows PKC activation, read-out: EC50 SRE-Luc zfTac3ra): 8.96 ± 1.19 nM
EC50 (zfTac3ra [7]; Table 7 (native peptides and analogues), PKC activation, read-out: EC50 using SRE, zfTac3ra): 6.06 nM
SMILES: CC[C@H](C)[C@H](NC(=O)CNC(=O)[C@@H](NC(=O)[C@@H](N)CO)[C@@H](C)O)C(=O)N[C@@H](CC(N)=O)C(=O)N[C@@H](CCCNC(=N)N)C(=O)N[C@@H](CCC(=O)O)C(=O)N[C@@H](C)C(=O)N[C@@H](Cc1c[nH]cn1)C(=O)N[C@@H](CC(C)C)C(=O)N1CCC[C@H]1C(=O)N[C@@H](Cc1ccccc1)C(=O)N[C@@H](CCCNC(=N)N)C(=O)N1CCC[C@H]1C(=O)N[C@@H](CC(N)=O)C(=O)N[C@@H](CCSC)C(=O)N[C@@H](CC(N)=O)C(=O)N[C@@H](CC(=O)O)C(=O)N[C@H](C(=O)N[C@@H](Cc1ccccc1)C(=O)N[C@H](C(=O)NCC(=O)N[C@@H](CC(C)C)C(=O)N[C@@H](CC(C)C)C(N)=O)C(C)C)[C@@H](C)CC [zfNKBb] (H-STGINREAHLPFRPNMNDIFVGLL-NH2; N-terminus assumed)
LH secretion [2]: significant increase; also recorded: less pronounced
